{
  "source": "PubChem BioAssay (NCI)",
  "assay_in_all_cases": "NCI tumour cell line growth inhibition, 48 h",
  "key": {"HL-60(TB) leukemia": {"tested_on": "HL-60(TB) leukemia"}, "MDA-MB-231 breast": {"tested_on": "MDA-MB-231 breast"}, "SR leukemia": {"tested_on": "SR leukemia"}, "EKVX NSCLC": {"tested_on": "EKVX NSCLC"}, "SW-620 colon": {"tested_on": "SW-620 colon"}, "BT-549 breast": {"tested_on": "BT-549 breast"}, "MALME-3M melanoma": {"tested_on": "MALME-3M melanoma"}, "HCT-116 colon": {"tested_on": "HCT-116 colon"}, "TK-10 renal": {"tested_on": "TK-10 renal"}, "K-562 leukemia": {"tested_on": "K-562 leukemia"}},
  "note": "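Step 1: Grow cells in 96-well plates. Step 2: Expose to compound for 48 hours at 5 concentrations. Step 3: Interpolate endpoints linearly; if unreached, use highest concentration. At the GI50, growth is halved. The concentration for full growth arrest is given as TGI.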",
  "data": [
    {"compound": "COc1cc(/C=C/C(=O)c2c(C)nc3ccccc3c2C)ccc1OCCCN1CCN(C(=O)c2ccco2)CC1", "values": [
      {"measurement": "GI50", "setting": "HL-60(TB) leukemia", "result": 2.72, "unit": "µM"},
      {"measurement": "TGI", "setting": "HL-60(TB) leukemia", "result": 5.63, "unit": "µM"},
      {"measurement": "GI50", "setting": "MDA-MB-231 breast", "result": 7.22, "unit": "µM"},
      {"measurement": "TGI", "setting": "MDA-MB-231 breast", "result": 29.9, "unit": "µM"},
      {"measurement": "GI50", "setting": "SR leukemia", "result": 2.22, "unit": "µM"},
      {"measurement": "TGI", "setting": "SR leukemia", "result": 7.47, "unit": "µM"},
      {"measurement": "GI50", "setting": "EKVX NSCLC", "result": 7.76, "unit": "µM"},
      {"measurement": "TGI", "setting": "EKVX NSCLC", "result": 42.6, "unit": "µM"},
      {"measurement": "GI50", "setting": "SW-620 colon", "result": 6.03, "unit": "µM"},
      {"measurement": "TGI", "setting": "SW-620 colon", "result": 19.2, "unit": "µM"},
      {"measurement": "GI50", "setting": "BT-549 breast", "result": 4.86, "unit": "µM"},
      {"measurement": "TGI", "setting": "BT-549 breast", "result": 23.3, "unit": "µM"},
      {"measurement": "GI50", "setting": "MALME-3M melanoma", "result": 3.43, "unit": "µM"},
      {"measurement": "TGI", "setting": "MALME-3M melanoma", "result": 18.2, "unit": "µM"},
      {"measurement": "GI50", "setting": "HCT-116 colon", "result": 3.5, "unit": "µM"},
      {"measurement": "TGI", "setting": "HCT-116 colon", "result": 15.7, "unit": "µM"},
      {"measurement": "GI50", "setting": "TK-10 renal", "result": 15.3, "unit": "µM"},
      {"measurement": "TGI", "setting": "TK-10 renal", "result": 30, "unit": "µM"},
      {"measurement": "GI50", "setting": "K-562 leukemia", "result": 2.57, "unit": "µM"},
      {"measurement": "TGI", "setting": "K-562 leukemia", "result": 10.6, "unit": "µM"}
    ]},
    {"compound": "Nc1c(F)cc(-c2nc3cc(F)ccc3[se]2)cc1Br", "values": [
      {"measurement": "GI50", "setting": "HL-60(TB) leukemia", "result": "> 100", "unit": "µM"},
      {"measurement": "TGI", "setting": "HL-60(TB) leukemia", "result": "> 100", "unit": "µM"},
      {"measurement": "GI50", "setting": "MDA-MB-231 breast", "result": 0.306, "unit": "µM"},
      {"measurement": "TGI", "setting": "MDA-MB-231 breast", "result": 7.79, "unit": "µM"},
      {"measurement": "GI50", "setting": "SR leukemia", "result": "< 0.0162", "unit": "µM"},
      {"measurement": "TGI", "setting": "SR leukemia", "result": "> 100", "unit": "µM"},
      {"measurement": "GI50", "setting": "EKVX NSCLC", "result": 0.209, "unit": "µM"},
      {"measurement": "TGI", "setting": "EKVX NSCLC", "result": "> 100", "unit": "µM"},
      {"measurement": "GI50", "setting": "SW-620 colon", "result": "> 54.5", "unit": "µM"},
      {"measurement": "TGI", "setting": "SW-620 colon", "result": "> 100", "unit": "µM"},
      {"measurement": "GI50", "setting": "BT-549 breast", "result": 0.334, "unit": "µM"},
      {"measurement": "TGI", "setting": "BT-549 breast", "result": "> 27.8", "unit": "µM"},
      {"measurement": "GI50", "setting": "MALME-3M melanoma", "result": 25.3, "unit": "µM"},
      {"measurement": "TGI", "setting": "MALME-3M melanoma", "result": "> 100", "unit": "µM"},
      {"measurement": "GI50", "setting": "HCT-116 colon", "result": 0.025, "unit": "µM"},
      {"measurement": "TGI", "setting": "HCT-116 colon", "result": 13, "unit": "µM"},
      {"measurement": "GI50", "setting": "TK-10 renal", "result": 0.17, "unit": "µM"},
      {"measurement": "TGI", "setting": "TK-10 renal", "result": 0.61, "unit": "µM"},
      {"measurement": "GI50", "setting": "K-562 leukemia", "result": 49.2, "unit": "µM"},
      {"measurement": "TGI", "setting": "K-562 leukemia", "result": "> 100", "unit": "µM"}
    ]},
    {"compound": "COc1ccc(N(C)c2nc(Cl)nc3cnn(C)c23)cc1", "values": [
      {"measurement": "GI50", "setting": "HL-60(TB) leukemia", "result": "< 0.01", "unit": "µM"},
      {"measurement": "TGI", "setting": "HL-60(TB) leukemia", "result": "< 0.0222", "unit": "µM"},
      {"measurement": "GI50", "setting": "MDA-MB-231 breast", "result": 0.0262, "unit": "µM"},
      {"measurement": "TGI", "setting": "MDA-MB-231 breast", "result": "> 100", "unit": "µM"},
      {"measurement": "GI50", "setting": "SR leukemia", "result": "< 0.01", "unit": "µM"},
      {"measurement": "TGI", "setting": "SR leukemia", "result": "> 100", "unit": "µM"},
      {"measurement": "GI50", "setting": "EKVX NSCLC", "result": "< 0.0178", "unit": "µM"},
      {"measurement": "TGI", "setting": "EKVX NSCLC", "result": "> 100", "unit": "µM"},
      {"measurement": "GI50", "setting": "SW-620 colon", "result": "< 0.01", "unit": "µM"},
      {"measurement": "TGI", "setting": "SW-620 colon", "result": "> 100", "unit": "µM"},
      {"measurement": "GI50", "setting": "BT-549 breast", "result": 0.0207, "unit": "µM"},
      {"measurement": "TGI", "setting": "BT-549 breast", "result": "> 71.6", "unit": "µM"},
      {"measurement": "TGI", "setting": "MALME-3M melanoma", "result": "> 100", "unit": "µM"},
      {"measurement": "GI50", "setting": "HCT-116 colon", "result": "< 0.01", "unit": "µM"},
      {"measurement": "TGI", "setting": "HCT-116 colon", "result": "> 100", "unit": "µM"},
      {"measurement": "GI50", "setting": "TK-10 renal", "result": "> 68.6", "unit": "µM"},
      {"measurement": "TGI", "setting": "TK-10 renal", "result": "> 100", "unit": "µM"},
      {"measurement": "GI50", "setting": "K-562 leukemia", "result": "< 0.01", "unit": "µM"},
      {"measurement": "TGI", "setting": "K-562 leukemia", "result": "> 100", "unit": "µM"}
    ]},
    {"compound": "COc1ccc2c(c1)C(=O)c1c-2c(Nc2cccc(C(C)=O)c2)nc2ccccc12", "values": [
      {"measurement": "GI50", "setting": "HL-60(TB) leukemia", "result": "> 100", "unit": "µM"},
      {"measurement": "TGI", "setting": "HL-60(TB) leukemia", "result": "> 100", "unit": "µM"},
      {"measurement": "GI50", "setting": "MDA-MB-231 breast", "result": 3.21, "unit": "µM"},
      {"measurement": "TGI", "setting": "MDA-MB-231 breast", "result": 12.7, "unit": "µM"},
      {"measurement": "GI50", "setting": "SR leukemia", "result": 21.6, "unit": "µM"},
      {"measurement": "TGI", "setting": "SR leukemia", "result": "> 100", "unit": "µM"},
      {"measurement": "GI50", "setting": "EKVX NSCLC", "result": 12.5, "unit": "µM"},
      {"measurement": "TGI", "setting": "EKVX NSCLC", "result": 32.1, "unit": "µM"},
      {"measurement": "GI50", "setting": "SW-620 colon", "result": 21.2, "unit": "µM"},
      {"measurement": "TGI", "setting": "SW-620 colon", "result": "> 100", "unit": "µM"},
      {"measurement": "GI50", "setting": "BT-549 breast", "result": 9.68, "unit": "µM"},
      {"measurement": "TGI", "setting": "BT-549 breast", "result": 21.4, "unit": "µM"},
      {"measurement": "GI50", "setting": "MALME-3M melanoma", "result": 18, "unit": "µM"},
      {"measurement": "TGI", "setting": "MALME-3M melanoma", "result": 48.3, "unit": "µM"},
      {"measurement": "GI50", "setting": "HCT-116 colon", "result": 2.64, "unit": "µM"},
      {"measurement": "TGI", "setting": "HCT-116 colon", "result": 10.9, "unit": "µM"},
      {"measurement": "GI50", "setting": "TK-10 renal", "result": 24.8, "unit": "µM"},
      {"measurement": "TGI", "setting": "TK-10 renal", "result": 65, "unit": "µM"},
      {"measurement": "GI50", "setting": "K-562 leukemia", "result": 44.7, "unit": "µM"},
      {"measurement": "TGI", "setting": "K-562 leukemia", "result": "> 100", "unit": "µM"}
    ]},
    {"compound": "N#CC1C(=O)NC(c2ccccc2[N+](=O)[O-])c2sc3c(F)cccc3c21", "note": "(centres undefined)", "values": [
      {"measurement": "GI50", "setting": "HL-60(TB) leukemia", "result": 14.2, "unit": "µM"},
      {"measurement": "TGI", "setting": "HL-60(TB) leukemia", "result": 54.3, "unit": "µM"},
      {"measurement": "GI50", "setting": "MDA-MB-231 breast", "result": 8.53, "unit": "µM"},
      {"measurement": "TGI", "setting": "MDA-MB-231 breast", "result": 54.8, "unit": "µM"},
      {"measurement": "GI50", "setting": "SR leukemia", "result": 7.86, "unit": "µM"},
      {"measurement": "TGI", "setting": "SR leukemia", "result": "> 65.4", "unit": "µM"},
      {"measurement": "GI50", "setting": "EKVX NSCLC", "result": 3.41, "unit": "µM"},
      {"measurement": "TGI", "setting": "EKVX NSCLC", "result": 41.8, "unit": "µM"},
      {"measurement": "GI50", "setting": "SW-620 colon", "result": 0.366, "unit": "µM"},
      {"measurement": "TGI", "setting": "SW-620 colon", "result": "> 100", "unit": "µM"},
      {"measurement": "GI50", "setting": "BT-549 breast", "result": 14.9, "unit": "µM"},
      {"measurement": "TGI", "setting": "BT-549 breast", "result": 61.5, "unit": "µM"},
      {"measurement": "GI50", "setting": "MALME-3M melanoma", "result": 19.5, "unit": "µM"},
      {"measurement": "TGI", "setting": "MALME-3M melanoma", "result": 63.7, "unit": "µM"},
      {"measurement": "GI50", "setting": "HCT-116 colon", "result": 0.138, "unit": "µM"},
      {"measurement": "TGI", "setting": "HCT-116 colon", "result": 11.9, "unit": "µM"},
      {"measurement": "GI50", "setting": "TK-10 renal", "result": 11.5, "unit": "µM"},
      {"measurement": "TGI", "setting": "TK-10 renal", "result": 60.6, "unit": "µM"},
      {"measurement": "GI50", "setting": "K-562 leukemia", "result": 2.39, "unit": "µM"},
      {"measurement": "TGI", "setting": "K-562 leukemia", "result": 58.8, "unit": "µM"}
    ]}
  ]
}
